Read-outs that look alike come from different tables or passages of the source. *1 amine or outer side, *2 acyl side, *3 side chain or, on linkers, in order; H or OH if unused. Where a SMILES comes first, the peptide text is derived from it. [ ]: non-standard residue; d: D form. The star is where a group is joined. Oic = O=C(O)[C@@H]1C[C@@H]2CCCC[C@@H]2N1; X2 = CCC[C@H](N[*:1])C(=O)C(=O)[*:2]; Isopropoxycarbonyl = CC(C)OC(=O)*; Pyrazinecarbonyl = O=C(c1cnccn1)*; X1 = CCCC(N[*:1])C(=O)C(=O)[*:2]; Chg = N[C@H](C(=O)O)C1CCCCC1; Tle = CC(C)(C)[C@H](N)C(=O)O; NHcPr = C1CC1N*
Assays:
[1] = target: HCV NS3-NS4A protease (tNS3 with KK4A) (Hepatitis C virus genotype 1a, UniProt P27958); assay: HCV Ki assay (HPLC microbore separation of 5AB substrate and products); type: biochemical
Protocol: HPLC Microbore Method for Separation of 5AB Substrate and Products
• Substrate: • NH2-Glu-Asp-Val-Val-(alpha)Abu-Cys-Ser-Met-Ser-Tyr-COOH
A stock solution of 20 mM 5AB (or concentration of your choice) was made in DMSO w/ 0.2M DTT. This was stored in aliquots at −20 C.
Buffer: 50 mM HEPES, pH 7.8; 20% glycerol; 100 mM NaCl
Total assay volume was 100 μL
The buffer, KK4A, DTT, and tNS3 were combined; distributed 78 μL each into wells of 96 well plate. This was incubated at 30 C for ˜5–10 min.
2.5 μL of appropriate concentration of test compound was dissolved in DMSO (DMSO only for control) and added to each well. This was incubated at room temperature for 15 min.
Initiated reaction by addition of 20 μL of 250 μM 5AB substrate (25 μM concentration is equivalent or slightly lower than the Km for 5AB).
Incubated for 20 min at 30 C.
Terminated reaction by addition of 25 μL of 10% TFA
Transferred 120 μL aliquots to HPLC vials
Separated SMSY product from substrate and KK4A by the following method:
Microbore Separation Method:
Instrumentation: Agilent 1100
• Degasser G1322A • Binary pump G1312A • Autosampler G1313A • Column thermostated chamber G1316A • Diode array detector G1315A Column:
Phenomenex Jupiter; 5 micron C18; 300 angstroms; 150×2 mm; P/O 00F-4053-B0 • Column thermostat: 40 C • Injection volume: 100 μL • Solvent A=HPLC grade water+0.1% TFA • Solvent B=HPLC grade acetonitrile+0.1% TFA
• Stop time: 17 min • Post-run time: 10 min.

[2] = system: Cells containing hepatitis C virus (HCV) replicon; assay: HCV replicon cell assay (Taqman RT-PCR of HCV RNA); type: cell-based; conditions: 50% inhibition of HCV RNA level, 48-hour incubation, HCV replicon cells, read-out: IC50
Protocol: HCV Replicon Cell Assay Protocol
Cells containing hepatitis C virus (HCV) replicon were maintained in DMEM containing 10% fetal bovine serum (FBS), 0.25 mg per ml of G418, with appropriate supplements (media A).
On day 1, replicon cell monolayer was treated with a trypsin:EDTA mixture, removed, and then media A was diluted into a final concentration of 100,000 cells per ml wit. 10,000 cells in 100 ul were plated into each well of a 96-well tissue culture plate, and cultured overnight in a tissue culture incubator at 37° C.
On day 2, compounds (in 100% DMSO) were serially diluted into DMEM containing 2% FBS, 0.5% DMSO, with appropriate supplements (media B). The final concentration of DMSO was maintained at 0.5% throughout the dilution series.
Media on the replicon cell monolayer was removed, and then media B containing various concentrations of compounds was added. Media B without any compound was added to other wells as no compound controls.
Cells were incubated with compound or 0.5% DMSO in media B for 48 hours in a tissue culture incubator at 37° C. At the end of the 48-hour incubation, the media was removed, and the replicon cell monolayer was washed once with PBS and stored at −80° C. prior to RNA extraction.
Culture plates with treated replicon cell monolayers were thawed, and a fixed amount of another RNA virus, such as Bovine Viral Diarrhea Virus (BVDV) was added to cells in each well. RNA extraction reagents (such as reagents from RNeasy kits) were added to the cells immediately to avoid degradation of RNA. Total RNA was extracted according the instruction of manufacturer with modification to improve extraction efficiency and consistency. Finally, total cellular RNA, including HCV replicon RNA, was eluted and stored at −80° C. until further processing.
A Taqman real-time RT-PCR quantification assay was set up with two sets of specific primers and probe. One was for HCV and the other was for BVDV. Total RNA extractants from treated HCV replicon cells was added to the PCR reactions for quantification of both HCV and BVDV RNA in the same PCR well. Experimental failure was flagged and rejected based on the level of BVDV RNA in each well. The level of HCV RNA in each well was calculated according to a standard curve run in the same PCR plate. The percentage of inhibition or decrease of HCV RNA level due to compound treatment was calculated using the DMSO or no compound control as 0% of inhibition. The IC50 (concentration at which 50% inhibition of HCV RNA level is observed) was calculated from the titration curve of any given compound.

Sequence of HCV NS3-NS4A protease (tNS3 with KK4A) (P27958 1027-1208): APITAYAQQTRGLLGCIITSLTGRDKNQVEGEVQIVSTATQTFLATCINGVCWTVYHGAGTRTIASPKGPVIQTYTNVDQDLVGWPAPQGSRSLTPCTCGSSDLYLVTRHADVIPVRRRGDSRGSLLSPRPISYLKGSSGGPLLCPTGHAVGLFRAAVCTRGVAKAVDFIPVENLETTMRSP

CCC[C@H](NC(=O)[C@@H]1C[C@@H]2CCCC[C@@H]2N1C(=O)[C@@H](NC(=O)[C@@H](NC(=O)c1ccncc1)C1CCCCC1)C(C)(C)C)C(=O)C(=O)NC1CC1 [Compound 32a]
Ki [1]: < 500 nM
IC50 [2]: 1000 to 5000 nM

CCCC(NC(=O)[C@@H]1C[C@@H]2CCCC[C@@H]2N1C(=O)[C@@H](NC(=O)[C@@H](NC(=O)c1[nH]c(C)c(C)c1C(C)=O)C1CCCCC1)C(C)(C)C)C(=O)C(=O)NC1CC1 (some centres unmarked) [Compound 33a]
Ki [1]: < 500 nM
IC50 [2]: < 500 nM

CCCC(NC(=O)[C@@H]1C[C@@H]2CCCC[C@@H]2N1C(=O)[C@@H](NC(=O)[C@@H](NC(=O)[C@H](C)NC(=O)OC(C)C)C1CCCCC1)C(C)C)C(=O)C(=O)NC1CC1 (some centres unmarked) [Compound 5a] (Isopropoxycarbonyl-A[Chg]V[Oic][X1]-NHcPr)
Ki [1]: < 500 nM

CCC[C@H](NC(=O)[C@@H]1C[C@@H]2CCCC[C@@H]2N1C(=O)[C@@H](NC(=O)[C@@H](NC(=O)c1[nH]c(C)c(C(=O)c2ccccc2)c1C#N)C1CCCCC1)C(C)(C)C)C(=O)C(=O)NC1CC1 [Compound 34a]
Ki [1]: < 500 nM
IC50 [2]: 1000 to 5000 nM

CCC[C@H](NC(=O)[C@@H]1C[C@@H]2CCCC[C@@H]2N1C(=O)[C@@H](NC(=O)[C@H](C1CCCCC1)N1C(=O)c2ccccc2C1=O)C(C)(C)C)C(=O)C(=O)NC1CC1 [Compound 57a]
Ki [1]: < 500 nM

CCCC(NC(=O)[C@@H]1C[C@@H]2CCCC[C@@H]2N1C(=O)[C@@H](NC(=O)[C@@H](NC(=O)[C@H](C)NC(=O)OC(C)C)C1CCCCC1)C(C)(C)C)C(=O)C(=O)NC1CC1 (some centres unmarked) [Compound 6a] (Isopropoxycarbonyl-A[Chg][Tle][Oic][X1]-NHcPr)
Ki [1]: < 500 nM

CCC[C@H](NC(=O)[C@@H]1C[C@@H]2CCCC[C@@H]2N1C(=O)[C@@H](NC(=O)[C@@H](NC(=O)c1cccnc1)C1CCCCC1)C(C)(C)C)C(=O)C(=O)NC1CC1 [Compound 31a]
Ki [1]: < 500 nM
IC50 [2]: 1000 to 5000 nM

CCC[C@H](NC(=O)[C@@H]1[C@@H](C(C)C)CCN1C(=O)[C@@H](NC(=O)[C@@H](NC(=O)c1[nH]c(C)c(C)c1C(C)=O)C1CCCCC1)C(C)(C)C)C(=O)C(=O)NC1CC1 [Compound 64]
Ki [1]: < 500 nM
IC50 [2]: < 500 nM

CCC[C@H](NC(=O)[C@@H]1C[C@@H]2CCCC[C@@H]2N1C(=O)[C@@H](NC(=O)[C@@H](NC(=O)c1cc2cc(C(C)=O)ccc2[nH]1)C1CCCCC1)C(C)(C)C)C(=O)C(=O)NC1CC1 [Compound 40a, 5-Acetyl-1H-indole-2-carboxylic acid (cyclohexyl-{1-[2-(1-cyclopropylaminooxalyl-butylcarbamoyl)-octahydro-indole-1-carbonyl]-2,2-dimethyl-propylcarbamoyl}-methyl)-amide]
Ki [1]: < 500 nM
IC50 [2]: < 500 nM

CCC[C@H](NC(=O)[C@@H]1C[C@@H]2CCCC[C@@H]2N1C(=O)[C@@H](NC(=O)[C@@H](NC(=O)C(=O)C(C)C)C1CCCCC1)C(C)(C)C)C(=O)C(=O)NC1CC1 [Compound 24a]
Ki [1]: < 500 nM
IC50 [2]: 1000 to 5000 nM

CCC[C@H](NC(=O)[C@@H]1C[C@@H]2CCCC[C@@H]2N1C(=O)[C@@H](NC(=O)[C@@H](NC(=O)c1[nH]c(C)c(C)c1C(C)=O)C(C)CC)C(C)(C)C)C(=O)C(=O)NC1CC1 (some centres unmarked) [Compound 59a]
Ki [1]: < 500 nM

CCC[C@H](NC(=O)[C@@H]1C[C@@H]2CCCC[C@@H]2N1C(=O)[C@@H](NC(=O)[C@@H](NC(=O)c1ccn[nH]1)C1CCCCC1)C(C)(C)C)C(=O)C(=O)NC1CC1 [Compound 15a]
Ki [1]: < 500 nM
IC50 [2]: < 500 nM

CCC[C@@H](NC(=O)[C@@H]1C[C@@H]2CCCC[C@@H]2N1C(=O)[C@@H](NC(=O)[C@@H](NC(=O)c1cnccn1)C1CCCCC1)C(C)(C)C)C(=O)C(=O)NC1CC1 [Compound 60a]
Ki [1]: 1000 to 5000 nM
IC50 [2]: 1000 to 5000 nM

CCC[C@H](NC(=O)[C@@H]1[C@@H](C2CCCCC2)CCN1C(=O)[C@@H](NC(=O)[C@@H](NC(=O)c1[nH]c(C)c(C)c1C(C)=O)C1CCCCC1)C(C)(C)C)C(=O)C(=O)NC1CC1 [Compound 63]
Ki [1]: < 500 nM
IC50 [2]: 500 to 1000 nM

CCC[C@H](NC(=O)[C@@H]1[C@H]2CCC[C@H]2CN1C(=O)[C@@H](NC(=O)[C@@H](NC(=O)c1[nH]c(C)c(C)c1C(C)=O)C1CCCCC1)C(C)(C)C)C(=O)C(=O)NC1CC1 [Compound 68]
Ki [1]: < 500 nM
IC50 [2]: < 500 nM

CCCC(NC(=O)[C@@H]1C[C@@H]2CCCC[C@@H]2N1C(=O)[C@@H](NC(=O)[C@@H](NC(=O)c1cnccn1)C1CCCCC1)C(C)(C)C)C(=O)C(=O)N[C@@H](C)c1ccccc1 (some centres unmarked) [Compound 7a]
Ki [1]: < 500 nM

CCC[C@H](NC(=O)[C@@H]1C[C@@H]2CCCC[C@@H]2N1C(=O)[C@@H](NC(=O)[C@@H](NC(=O)c1nccnc1C(N)=O)C1CCCCC1)C(C)(C)C)C(=O)C(=O)NC1CC1 [Compound 28a]
Ki [1]: < 500 nM

CCC[C@H](NC(=O)[C@@H]1C[C@@H]2CCCC[C@@H]2N1C(=O)[C@@H](NC(=O)[C@@H](NC(=O)c1ccnn1C)C1CCCCC1)C(C)(C)C)C(=O)C(=O)NC1CC1 [Compound 17a]
Ki [1]: 1000 to 5000 nM

CCCC(NC(=O)[C@@H]1C[C@@H]2CCCC[C@@H]2N1C(=O)[C@@H](NC(=O)[C@@H](NC(=O)c1cnccn1)C1CCCCC1)C(C)(C)C)B1O[C@@H]2C[C@@H]3C[C@@H](C3(C)C)[C@]2(C)O1 (some centres unmarked) [Compound 56a]
Ki ([1]; 25 nM tNS3, 25 μM KK4A, 25 μM 5AB substrate, 20 min at 30 C, read-out: Ki): < 500 nM

CCC[C@H](NC(=O)[C@@H]1C[C@@H]2CCCC[C@@H]2N1C(=O)[C@@H](NC(=O)[C@@H](NC(=O)c1[nH]c(C)c(C)c1C(C)=O)C(C)C)C(C)(C)C)C(=O)C(=O)NC1CC1 [Compound 58a]
Ki [1]: < 500 nM

CCCC(NC(=O)[C@@H]1C[C@@H]2CCCC[C@@H]2N1C(=O)[C@@H](NC(=O)[C@@H](NC(=O)C1CSC(=O)N1)C1CCCCC1)C(C)(C)C)C(=O)C(=O)N[C@@H](C)c1ccccc1 (some centres unmarked) [Compound 8a]
Ki [1]: < 500 nM

CCCC(NC(=O)[C@@H]1C[C@@H]2CCCC[C@@H]2N1C(=O)[C@@H](NC(=O)[C@@H](NC(=O)c1cnccn1)C(C)C)C(C)C)C(=O)C(=O)NC1CC1 (some centres unmarked) [Compound 2a]
Ki [1]: 500 to 1000 nM

CCC[C@H](NC(=O)[C@@H]1C[C@@H]2CCCC[C@@H]2N1C(=O)[C@@H](NC(=O)[C@@H](NC(=O)c1[nH]ncc1Cl)C1CCCCC1)C(C)(C)C)C(=O)C(=O)NC1CC1 [Compound 38a]
Ki [1]: 500 to 1000 nM

CCC[C@H](NC(=O)[C@@H]1C[C@@H]2CCCC[C@@H]2N1C(=O)[C@@H](NC(=O)[C@@H](NC(=O)c1cnccn1)C1CCCCC1)C(C)(C)C)C(=O)C(=O)N(C)C [Compound 50a]
Ki [1]: 1000 to 5000 nM

CCC[C@H](NC(=O)[C@@H]1C[C@@H]2CCCC[C@@H]2N1C(=O)[C@@H](NC(=O)[C@@H](NC(=O)c1cnccn1)C1CCCCC1)C(C)(C)C)C(=O)C(=O)NCC(=O)N(C)C [Compound 54a] (Pyrazinecarbonyl-[Chg][Tle][Oic][X2]G-NMe2)
Ki [1]: 1000 to 5000 nM

CCCC(NC(=O)[C@@H]1C[C@@H]2CCCC[C@@H]2N1C(=O)[C@@H](NC(=O)[C@@H](NC(=O)c1cnccn1)C(C)C)C(C)C)C(=O)C(=O)N[C@@H](Cc1ccccc1)C(=O)O (some centres unmarked) [Compound 1a] (Pyrazinecarbonyl-VV[Oic][X1]F-OH)
Ki [1]: < 500 nM

CCC[C@H](NC(=O)[C@@H]1C[C@@H]2CCCC[C@@H]2N1C(=O)[C@@H](NC(=O)[C@@H](NC(=O)c1[nH]c(C)c(C)c1C(C)=O)C1CCCCC1)C(C)(C)C)C(=O)C(=O)C(C)C [Compound 62a]
Ki [1]: 500 to 1000 nM
